Experimental data taken from patent US4563470A, “N-Substituted α,ωamino and imino-sulfonic acid salts and their application as cationic vectors of high cellular penetration” (Les Laboratories Meram, priority 1982, dated 1986).
Like-named read-outs stand apart in the source and are kept apart here.

Assays:
Swiss I.O.P.S. mice = experiment: in vivo; conditions: Swiss I.O.P.S. mouse; for LD50 by gastric tubage (B): oral
Experimental: (§1) The study is carried out with Swiss I.O.P.S. mice, in lots of 20 animals of both sexes.

Solubility = format: physicochemical; conditions: for solubility in alcohol / ethanol: alcohol or ethanol
[1] = Acute toxicity LD50 oral vs i.p. and B/P ratio, sodium salts (species not restated); format: in vivo; conditions: for selectivity ratio / LD50: in vivo
Excerpt: While the ratio for the reference salt, sodium chloride, is greater than 205.4/61.2=3.36, it is, for the imino compounds of Examples 1 and 5 7.0/3.0=2.33 and 6.7/4.4=1.52, respectively, and, for the amino compounds of Examples 2 and 6 (while not strictly determined but without doubt greater than 1), respectively greater than 20.1/20.1=1 and greater than […].

[2] = Antagonism of neurotoxic/convulsant activity of kainic acid, wet dog shaking (test of Fariello et al.); format: in vivo, rat; conditions: per os
Experimental: (§2) By way of example, the compounds are tested, on one hand by the test of Macallum et al., Can.

insulin = experiment: Potentiation of the hypoglycemic activity of insulin (test of Macallum et al.); format: in vivo, rabbit; conditions: for potentiation of the hypoglycemic activity of insulin, intravenous / potentiation of the hypoglycemic activity of insulin, oral: intravenous; for potentiation of the hypoglycemic activity of insulin, oral: non-convulsant dose of insulin; for oral activity after the metabolic and neurologic tests: summary of insulin potentiation and kainic acid tests
Experimental: as §2

[3] = Test of Frances et al. (ED50 rolling, trembling)
in vivo = conditions: mouse, in vivo; for selectivity ratio: B/P ratio (oral LD50 / i.p. LD50)
Experimental: as §1

[4] = tested on: Sprague-Dawley I.O.P.S. rat; experiment: Acute toxicity LD50 oral vs i.p. and B/P ratio, rat; format: in vivo
Excerpt: (§3) It has been determined that this discovery is not appropriate to a particular animal, by making the same observation for the Sprague-Dawley I.O.P.S. rat where the B/P ratio for magnesium chloride is greater than […]. For the respective compounds of Examples 13 and 14, the ratio is reduced in a most significant manner (p<0.001), to 3.3/2.2=1.5 and […].

[5] = kainic acid administered systemically to the rat; Fariello et al. 1980; cited from earlier work
[6] = Acute toxicity LD50 oral vs i.p. and B/P ratio, rat; format: in vivo; conditions: in vivo, Sprague-Dawley I.O.P.S. rat
Excerpt: as §3

[7] = tested on: Sprague-Dawley I.O.P.S. rats; experiment: Oral magnesium recharge in magnesium-deficient rats; format: in vivo, rat (Sprague-Dawley I.O.P.S.); conditions: for onset of correction of erythrocyte magnesium: 40, 20 or 5 mg magnesium/kg/day; for aggression of deficient rats with respect to mice (muricide activity): magnesium-deficient rats (25 ppm Mg); for erythrocyte magnesium level (hypercorrection): third day, deficient animals 40 mg, controls 60 mg
[8] = Therapeutic use in a patient with latent tetany by magnesium deficiency; format: in vivo, human
Experimental: was attacked by latent tetany by magnesium deficiency. They were treated for two years by various forms of magnesotherapy: 3 g magnesium lactate per day or three drinkable ampoules of magnesium pyroglutamate (standardised 127 mg Mg^2+ per ampoule) per day, without succeeding in correcting an erythrocyte magnesium level varying from 43 to 46 mg/l. A prescription of 3 gelatine-coated pills of the compound of Example 13 led to a regression of […] (headache, asthenia, cramp) and the increase, to 48 mg/l in the first month and to 53 mg/l in the second month, of the erythrocyte magnesium level. Ultimately, it was nevertheless observed that each interruption in administration of the product was followed, in the subsequent chemical and biological monthly control, by a relapse (comprising the symptomotology and reduction of the erythrocyte magnesium level to about 45 mg/l).

[9] = oral, read-out: LD50 by gastric tubage (B)
[10] = ip, LD50 i.p. (P), Swiss I.O.P.S. mouse
[11] = po, LD50 by gastric tubage (B), Swiss I.O.P.S. mouse
[12] = ip, i.p., read-out: LD50 i.p. (P)
[13] = one patient, 3 gelatine-coated pills (750 mg, 32 mg Mg ion daily)

Cc1ncc(CO)c(C=NCCS(=O)(=O)O)c1O [Example 3, Potassium β-(3-hydroxy-5-hydroxymethyl-2-methyl-4-pyridylmethyleneimino)ethanesulfonate]
B/P ratio (oral LD50 / i.p. LD50) (Swiss I.O.P.S. mice): 1.79 | LD50 by gastric tubage (B) (Swiss I.O.P.S. mice): 7.0 mmol/kg

Cc1ncc(CO)c(C=NCCCS(=O)(=O)O)c1O [Example 5, Sodium γ-(3-hydroxy-5-hydroxymethyl-2-methyl-4-pyridylmethyleneimino)propanesulfonate]
solubility in acetone (Solubility; acetone): Insoluble | solubility in alcohol / ethanol (Solubility): Insoluble | solubility in water (Solubility; water): Soluble | selectivity ratio [1]: 1.52 | LD50 ([1]; ip, read-out: LD50 i.p. (P)): 4400 µmol/kg | LD50 [1, 9]: 6700 µmol/kg

Cc1ncc(CO)c(C=NCCS(=O)(=O)O)c1O [Example 9, Lithium β-(3-hydroxy-5-hydroxymethyl-2-methyl-4-pyridylmethyleneimino)ethanesulfonate]
solubility in acetone (Solubility; acetone): Insoluble | solubility in water (Solubility; water): Soluble

Cc1ncc(CO)c(C=NCCCS(=O)(=O)O)c1O [Example 7, Potassium γ-(3-hydroxy-5-hydroxymethyl-2-methyl-4-pyridylmethyleneimino)propanesulfonate]
solubility in acetone (Solubility; acetone): Insoluble | solubility in water (Solubility; water): Soluble | B/P ratio (oral LD50 / i.p. LD50) (Swiss I.O.P.S. mice): 1.75 | LD50 by gastric tubage (B) (Swiss I.O.P.S. mice): 7.0 mmol/kg

Cc1ncc(CO)c(CNCCCS(=O)(=O)[O-])c1O.[Li+]
solubility in acetone (Solubility): insoluble | solubility in water (Solubility): soluble

NCCS(=O)(=O)O [Taurine, 2-aminoethanesulfonic acid]
reduction of the neurotoxic effect of kainic acid (wet dog shaking) [2]: no significant reduction | potentiation of the hypoglycemic activity of insulin, intravenous (insulin): active intravenously | potentiation of the hypoglycemic activity of insulin, oral (insulin): not orally active | oral activity after the metabolic and neurologic tests (insulin): inactive | ED50 ([3]; read-out: ED50 rolling): 4670 µmol/kg | ED50 ([3]; read-out: ED50 trembling): 4340 µmol/kg

Cc1ncc(CO)c(CNCCS(=O)(=O)[O-])c1O.[Na+] [Example 2, Sodium β-(3-hydroxy-5-hydroxymethyl-2-methyl-4-pyridylmethylamino)ethanesulfonate]
solubility in acetone (Solubility; acetone): Insoluble | solubility in methanol (Solubility): Poorly soluble | solubility in water (Solubility; water): Soluble | selectivity ratio [1]: > 1 | LD50 ([1]; ip, read-out: LD50 i.p. (P)): 20100 µmol/kg | LD50 [1, 9]: > 20100 µmol/kg

Cc1ncc(CO)c(C=NCCCS(=O)(=O)O)c1O [Example 12, Calcium γ-(3-hydroxy-5-hydroxymethyl-2-methyl-4-pyridylmethyleneimino)propanesulfonate]
solubility in acetone (Solubility; acetone): Insoluble | solubility in methanol (Solubility): Soluble | solubility in water (Solubility; water): Soluble | B/P ratio (oral LD50 / i.p. LD50) (Swiss I.O.P.S. mice): 3.3 | LD50 (in vivo; [10]): 2400 µmol/kg | LD50 (in vivo; [11]): 8100 µmol/kg

[Cl-].[Cl-].[Mg+2] [magnesium chloride, reference compound]
B/P ratio (oral LD50 / i.p. LD50) [4]: > 8.99 | LD50 by gastric tubage (B) ([4]; oral): greater than 39.3 mmol/kg | B/P ratio (oral LD50 / i.p. LD50) (Swiss I.O.P.S. mice): 2.04 | LD50 by gastric tubage (B) (Swiss I.O.P.S. mice): 19.2 mmol/kg

Cc1ncc(CO)c(CNCCCS(=O)(=O)[O-])c1O.[K+]
solubility in acetone (Solubility): Insoluble | solubility in water (Solubility): Soluble | selectivity ratio (in vivo; Swiss I.O.P.S. mouse): 1.19 | LD50 (in vivo; [10]): 14200 µmol/kg | LD50 (in vivo; [11]): 17000 µmol/kg | ED50 ([3]; read-out: ED50 rolling): 270 µmol/kg | ED50 ([3]; read-out: ED50 trembling): 270 µmol/kg | activity relative to taurine ([3]; test of Frances et al.): 17 times

Cc1ncc(CO)c(CNCCS(=O)(=O)[O-])c1O.[K+]
solubility in acetone (Solubility): Insoluble | solubility in water (Solubility): Soluble | selectivity ratio (in vivo; Swiss I.O.P.S. mouse): 1.2 | LD50 (in vivo; [10]): 13000 µmol/kg | LD50 (in vivo; [11]): 15700 µmol/kg

[Ca+2].[Cl-].[Cl-] [CaCl2, reference compound]
B/P ratio (oral LD50 / i.p. LD50) (Swiss I.O.P.S. mice): > 9.2 | LD50 by gastric tubage (B) (Swiss I.O.P.S. mice): greater than 36.5 mmol/kg

NCCCS(=O)(=O)O [homotaurine, 3-aminopropanesulfonic acid]
reduction of the neurotoxic effect of kainic acid (wet dog shaking) [2]: no significant reduction | antagonism of neurotoxic or convulsant activity of kainic acid [5]: antagonises the neurotoxic or convulsant activity of kainic acid | potentiation of the hypoglycemic activity of insulin, intravenous (insulin): active intravenously | potentiation of the hypoglycemic activity of insulin, oral (insulin): not orally active | oral activity after the metabolic and neurologic tests (insulin): inactive

Cc1ncc(CO)c(C=NCCCS(=O)(=O)O)c1O [lithium γ-(3-hydroxy-5-hydroxymethyl-2-methyl-4-pyridylmethy] [lithium γ-(3-hydroxy-5-hydroxymethyl-2-methyl-4-pyridylmethyleneimino)propanesulfonate]
solubility in acetone (Solubility; acetone): insoluble | solubility in water (Solubility; water): soluble

Cc1ncc(CO)c(C=NCCS(=O)(=O)O)c1O [Example 1, Sodium β-(3-hydroxy-5-hydroxymethyl-2-methyl-4-pyridylmethyleneimino)ethanesulfonate]
solubility in alcohol / ethanol (Solubility): Insoluble | selectivity ratio [1]: 2.33 | LD50 ([1]; ip, read-out: LD50 i.p. (P)): 3000 µmol/kg | LD50 [1, 9]: 7000 µmol/kg

Cc1ncc(CO)c(C=NCCCS(=O)(=O)O)c1O [Example 14, Magnesium γ-(3-hydroxy-5-hydroxymethyl-2-methyl-4-pyridylmethyleneimino)propanesulfonate]
solubility in acetone (Solubility; acetone): Insoluble | solubility in methanol (Solubility): Insoluble | solubility in water (Solubility; water): Soluble | LD50 [6, 12]: 2400 µmol/kg | selectivity ratio [6]: 1.66 | LD50 [6, 9]: 4200 µmol/kg | B/P ratio (oral LD50 / i.p. LD50) (Swiss I.O.P.S. mice): 1.24 | LD50 (in vivo; ip): 3300 µmol/kg | LD50 (in vivo; po): 4100 µmol/kg | onset of hypercorrection of erythrocyte magnesium [7]: third day | onset of correction of erythrocyte magnesium [7]: first day | aggression of deficient rats with respect to mice (muricide activity) [7]: reduced aggression | erythrocyte magnesium level (hypercorrection) [7]: 75.8 mg

[Cl-].[Na+] [sodium chloride, reference compound]
B/P ratio (oral LD50 / i.p. LD50) [1]: > 3.36 | LD50 by gastric tubage (B) ([1]; oral): greater than 205.4 mmol/kg

Cc1ncc(CO)c(CNCCS(=O)(=O)[O-])c1O.[Li+]
solubility in acetone (Solubility): Insoluble | solubility in water (Solubility): Soluble

Cc1ncc(CO)c(C=NCCS(=O)(=O)O)c1O [Example 11, Calcium β-(3-hydroxy-5-hydroxymethyl-2-methyl-4-pyridylmethyleneimino)ethanesulfonate]
B/P ratio (oral LD50 / i.p. LD50) (Swiss I.O.P.S. mice): 2.96 | LD50 (in vivo; [10]): 2600 µmol/kg | LD50 (in vivo; [11]): 7700 µmol/kg

[Cl-].[K+] [potassium chloride, reference compound]
B/P ratio (oral LD50 / i.p. LD50) (Swiss I.O.P.S. mice): > 7.25 | LD50 by gastric tubage (B) (Swiss I.O.P.S. mice): greater than 107.3 mmol/kg

vitamin B6
oral activity after the metabolic and neurologic tests (insulin): inactive

Cc1ncc(CO)c(CNCCCS(=O)(=O)[O-])c1O.[Na+]
solubility in acetone (Solubility; acetone): Insoluble | solubility in water (Solubility; water): Soluble | selectivity ratio [1]: > 1.43 | LD50 ([1]; ip, read-out: LD50 i.p. (P)): 13000 µmol/kg | LD50 [1, 9]: > 19200 µmol/kg

Cc1ncc(CO)c(C=NCCS(=O)(=O)O)c1O [Example 13, Magnesium β-(3-hydroxy-5-hydroxymethyl-2-methyl-4-pyridylmethyleneimino)ethanesulfonate]
solubility in methanol (Solubility): Insoluble | LD50 [6, 12]: 2200 µmol/kg | selectivity ratio [6]: 1.5 | LD50 [6, 9]: 3300 µmol/kg | B/P ratio (oral LD50 / i.p. LD50) (Swiss I.O.P.S. mice): 1.17 | LD50 (in vivo; ip): 2800 µmol/kg | LD50 (in vivo; po): 3300 µmol/kg | onset of hypercorrection of erythrocyte magnesium [7]: third day | onset of correction of erythrocyte magnesium [7]: first day | aggression of deficient rats with respect to mice (muricide activity) [7]: reduced aggression | erythrocyte magnesium level (hypercorrection) [7]: 79.2 mg | activity in controlling magnesium deficiency versus conventional magnesium salts ([8]; 750 mg daily (32 mg Mg ion) vs conventional magnesium salts at doses 10 times larger): more active | symptoms (headache, asthenia, cramp) ([8]; one patient, 3 gelatine-coated pills): regression | erythrocyte magnesium level, first month [8, 13]: 48 mg/L | erythrocyte magnesium level, second month [8, 13]: 53 mg/L | erythrocyte magnesium level after interruption of administration ([8]; one patient, relapse at subsequent monthly control): about 45 mg/l
